# Source: PubChem BioAssay AID504792 (Sanford-Burnham Center for Chemical Genomics, 2011)
# Activity calls are given as the source filed them.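 Rule for the calls: active = IC50 at or below 20 µM; inactive = the rest.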
# Target: Glucose-6-phosphate 1-dehydrogenase (Homo sapiens) (UniProt P11413)
# Test: inhibition of Homo sapiens G6PD, dose series – biochemical, fluorescence, selectivity assay for P. falciparum G6PD inhibitor project, dose response (AID 504792)
# Details: human G6PD enzyme, NADPH resazurin-diaphorase fluorescence
# Glucose-6-phosphate 1-dehydrogenase (Homo sapiens), sequence (P11413 whole entry, looked up): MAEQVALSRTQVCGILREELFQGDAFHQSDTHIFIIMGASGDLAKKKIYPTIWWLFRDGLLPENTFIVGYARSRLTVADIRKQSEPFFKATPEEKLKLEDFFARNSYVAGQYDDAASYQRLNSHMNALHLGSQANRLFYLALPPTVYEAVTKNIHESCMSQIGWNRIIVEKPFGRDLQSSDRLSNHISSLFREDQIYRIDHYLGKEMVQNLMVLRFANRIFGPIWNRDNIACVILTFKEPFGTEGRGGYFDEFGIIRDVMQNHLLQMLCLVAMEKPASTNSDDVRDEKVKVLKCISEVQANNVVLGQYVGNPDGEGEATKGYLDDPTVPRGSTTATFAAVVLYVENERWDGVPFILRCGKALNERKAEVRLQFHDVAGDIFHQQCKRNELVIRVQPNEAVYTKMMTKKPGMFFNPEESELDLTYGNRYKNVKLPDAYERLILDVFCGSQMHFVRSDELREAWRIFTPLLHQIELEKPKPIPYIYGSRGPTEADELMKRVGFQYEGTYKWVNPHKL
smiles,measurement,value
C[c-]1[c-](C)[c-](C)[c-](C)[c-]1C.[Fe].c1cc2nccc(N3CCCC3)[c-]2c1 (stereo unspecified),IC50,> 80 µM (inactive)
